target: T1, cellular PARG (Homo sapiens, UniProt Q86W56); assay: Nuclear PAR accumulation assay (immunofluorescence high-content imaging, MMS-treated HeLa cells); format: cell-based; conditions: 1 hour compound then MMS 50 μg/mL for an additional hour
T1 construct: endogenous in cells; host or cells: HeLa
In short: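 HeLa cells pretreated with compound for 1 h at 37° C, then given 50 μg/mL MMS for another hour. After methanol fixation, PAR was immunostained with DAPI nuclear counterstain; per-nucleus intensity and percent PAR-positive cells were imaged at 20× (≥1,000 cells/well). IC50 from four-parameter logistic fit.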

T1 sequence (Q86W56 whole entry): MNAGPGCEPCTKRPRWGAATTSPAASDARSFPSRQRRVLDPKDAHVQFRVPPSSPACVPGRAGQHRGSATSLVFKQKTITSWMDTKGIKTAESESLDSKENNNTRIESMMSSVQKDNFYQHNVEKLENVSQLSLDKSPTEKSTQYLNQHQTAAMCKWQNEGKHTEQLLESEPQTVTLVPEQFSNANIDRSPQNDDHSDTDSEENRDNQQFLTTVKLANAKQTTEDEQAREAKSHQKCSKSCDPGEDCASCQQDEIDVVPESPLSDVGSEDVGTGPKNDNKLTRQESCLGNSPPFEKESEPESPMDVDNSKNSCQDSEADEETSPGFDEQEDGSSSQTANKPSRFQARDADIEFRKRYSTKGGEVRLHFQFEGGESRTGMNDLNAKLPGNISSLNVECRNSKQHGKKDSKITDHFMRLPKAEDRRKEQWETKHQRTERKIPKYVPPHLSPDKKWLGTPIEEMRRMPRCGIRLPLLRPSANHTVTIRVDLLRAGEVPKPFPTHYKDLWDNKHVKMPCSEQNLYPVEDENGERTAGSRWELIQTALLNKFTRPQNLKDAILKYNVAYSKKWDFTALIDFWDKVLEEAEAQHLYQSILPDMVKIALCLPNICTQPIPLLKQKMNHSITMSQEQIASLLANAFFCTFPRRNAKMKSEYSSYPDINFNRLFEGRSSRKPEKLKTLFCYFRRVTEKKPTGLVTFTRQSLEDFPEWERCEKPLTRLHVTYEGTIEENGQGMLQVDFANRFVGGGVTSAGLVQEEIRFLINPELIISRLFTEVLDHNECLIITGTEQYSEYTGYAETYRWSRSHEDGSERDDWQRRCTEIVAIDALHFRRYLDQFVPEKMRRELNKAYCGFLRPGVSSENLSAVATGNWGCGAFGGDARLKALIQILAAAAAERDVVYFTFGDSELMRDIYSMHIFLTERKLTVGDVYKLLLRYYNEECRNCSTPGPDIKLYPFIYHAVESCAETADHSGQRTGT

First: C[C@@H]1CN=C2N(Cc3cnn(C)c3)C(=O)c3cc(S(=O)(=O)NC4(C)CC4)cc(N4CC[C@H](N)C4)c3N21 [Example 75, (R)-9-((S)-3-aminopyrrolidin-1-yl)-1-methyl-4-((1-methyl-1H-pyrazol-4-yl)methyl)-N-(1-methylcyclopropyl)-5-oxo-1,2,4,5-tetrahydroimidazo[1,2-a]quinazoline-7-sulfonamide]
Second: C[C@@H]1CN=C2N(Cc3cnn(C)c3)C(=O)c3cc(S(=O)(=O)NC4(C)CC4)cc(N4C[C@H](C)N[C@@H](C)C4)c3N21 [Example 53, (R)-9-((3S,5S)-3,5-dimethylpiperazin-1-yl)-1-methyl-4-((1-methyl-1H-pyrazol-4-yl)methyl)-N-(1-methylcyclopropyl)-5-oxo-1,2,4,5-tetrahydroimidazo[1,2-a]quinazoline-7-sulfonamide]
The IC50 of the first is lower: 100 to 1000 nM for the first, 1000 to 10000 nM for the second.

`CN1C(=O)c2cc(S(=O)(=O)NC3(C)CC3)ccc2N2C1=NCC2C#Cc1ccc2cnn(C)c2c1` (stereo not drawn) [Example 133, 4-methyl-1-((1-methyl-1H-indazol-6-yl)ethynyl)-N-(1-methylcyclopropyl)-5-oxo-1,2,4,5-tetrahydroimidazo[1,2-a]quinazoline-7-sulfonamide] and `[2H]C([2H])(c1cnn(C)c1)N1C(=O)c2cc(S(=O)(=O)NC3(C)CC3)ccc2N2C1=NC[C@H]2C#Cc1ccc(N(C)C)nc1` [Example 280, (R)-1-((6-(dimethylamino)pyridin-3-yl)ethynyl)-4-((1-methyl-1H-pyrazol-4-yl)methyl-d2)-N-(1-methylcyclopropyl)-5-oxo-1,2,4,5-tetrahydroimidazo[1,2-a]quinazoline-7-sulfonamide] cannot be ordered by IC50: < 100 nM for the first, < 100 nM for the second.

First: CCN1C(=O)c2cc(S(=O)(=O)NC3(C)CC3)ccc2N2C1=NC[C@H]2C#CC1CC1 [Example 188, (R)-1-(cyclopropylethynyl)-4-ethyl-N-(1-methylcyclopropyl)-5-oxo-1,2,4,5-tetrahydroimidazo[1,2-a]quinazoline-7-sulfonamide]
Second: Cn1cc(CN2C(=O)c3cc(S(=O)(=O)NC4(C)CC4)ccc3N3C2=NC[C@H]3C#CC(C)(C)O)cn1 [Example 69, (R)-1-(3-hydroxy-3-methylbut-1-yn-1-yl)-4-((1-methyl-1H-pyrazol-4-yl)methyl)-N-(1-methylcyclopropyl)-5-oxo-1,2,4,5-tetrahydroimidazo[1,2-a]quinazoline-7-sulfonamide]
The IC50 of the first is lower: < 100 nM for the first, 100 to 1000 nM for the second. The first is the more potent here.

`CN1C(=O)c2cc(S(=O)(=O)NC3(C)CC3)cc(C3=CCN(C(=O)C4CC4)CC3)c2N2C1=N[C@H]1CCC[C@H]12` [Example 52, (7aS,10aR)-1-(1-(cyclopropanecarbonyl)-1,2,3,6-tetrahydropyridin-4-yl)-6-methyl-N-(1-methylcyclopropyl)-5-oxo-6,7a,8,9,10,10a-hexahydro-5H-cyclopenta[4,5]imidazo[1,2-a]quinazoline-3-sulfonamide] and `COC1(C(=O)N2CCN(c3cc(S(=O)(=O)NC4(C)CC4)cc4c3N3C(=NC[C@H]3C)N(C)C4=O)CC2)CC1` [Example 125, (R)-9-(4-(1-methoxycyclopropane-1-carbonyl)piperazin-1-yl)-1,4-dimethyl-N-(1-methylcyclopropyl)-5-oxo-1,2,4,5-tetrahydroimidazo[1,2-a]quinazoline-7-sulfonamide] cannot be ordered by IC50: < 100 nM for the first, < 100 nM for the second.

`[2H]C([2H])(c1cnn(C)c1)N1C(=O)c2cc(S(=O)(=O)NC3(C)CC3)ccc2N2C1=NC[C@H]2C#CC1(N(C)C)CC1` [Example 112, (R)-1-((1-(dimethylamino)cyclopropyl)ethynyl)-4-((1-methyl-1H-pyrazol-4-yl)methyl-d2)-N-(1-methylcyclopropyl)-5-oxo-1,2,4,5-tetrahydroimidazo[1,2-a]quinazoline-7-sulfonamide] and `[2H]C([2H])(c1cnn(C)c1)N1C(=O)c2cc(S(=O)(=O)NC3(C)CC3)ccc2N2C1=NC[C@H]2C#Cc1cncnc1OC` [Example 262, (R)-1-((4-methoxypyrimidin-5-yl)ethynyl)-4-((1-methyl-1H-pyrazol-4-yl)methyl-d2)-N-(1-methylcyclopropyl)-5-oxo-1,2,4,5-tetrahydroimidazo[1,2-a]quinazoline-7-sulfonamide] cannot be ordered by IC50: < 100 nM for the first, < 100 nM for the second.

Compared with `Cn1cc(CN2C(=O)c3cc(S(=O)(=O)NC4(C)CC4)ccc3N3C2=NCC3COc2ccccc2C#N)cn1` (stereo not drawn) [Example 137, 1-((2-cyanophenoxy)methyl)-4-((1-methyl-1H-pyrazol-4-yl)methyl)-N-(1-methylcyclopropyl)-5-oxo-1,2,4,5-tetrahydroimidazo[1,2-a]quinazoline-7-sulfonamide], `Cc1ncc([C@@H]2CN=C3N(Cc4cnn(C)c4)C(=O)c4cc(S(=O)(=O)NC5(C)CC5)ccc4N32)s1` [Example 121, (S)-4-((1-methyl-1H-pyrazol-4-yl)methyl)-N-(1-methylcyclopropyl)-1-(2-methylthiazol-5-yl)-5-oxo-1,2,4,5-tetrahydroimidazo[1,2-a]quinazoline-7-sulfonamide] is lower in IC50: 100 to 1000 nM for the first, < 100 nM for the second.

Compared with `[2H]C([2H])(c1cnn(C)c1)N1C(=O)c2cc(S(=O)(=O)NC3(C)CC3)c(NCc3ccc(OC)nc3)cc2N2C1=N[C@H]1CCC[C@H]12` [Example 286, (7aS,10aR)-2-(((6-methoxypyridin-3-yl)methyl)amino)-6-((1-methyl-1H-pyrazol-4-yl)methyl-d2)-N-(1-methylcyclopropyl)-5-oxo-6,7a,8,9,10,10a-hexahydro-5H-cyclopenta[4,5]imidazo[1,2-a]quinazoline-3-sulfonamide], `[2H]C([2H])(c1cnn(C)c1)N1C(=O)c2cc(S(=O)(=O)NC3(CO)CC3)ccc2N2C1=NC[C@H]2C` [Example 237, (R)-N-(1-(hydroxymethyl)cyclopropyl)-1-methyl-4-((1-methyl-1H-pyrazol-4-yl)methyl-d2)-5-oxo-1,2,4,5-tetrahydroimidazo[1,2-a]quinazoline-7-sulfonamide] is higher in IC50: < 100 nM for the first, 1000 to 10000 nM for the second.

First: COc1ccc(CN2C(=O)c3cc(S(=O)(=O)NC4(C)CC4)ccc3N3C2=NC[C@H]3C)cc1 [Example 9, (R)-4-(4-methoxybenzyl)-1-methyl-N-(1-methylcyclopropyl)-5-oxo-1,2,4,5-tetrahydroimidazo[1,2-a]quinazoline-7-sulfonamide]
Second: C#C[C@@H]1CN=C2N(Cc3cnc(C)o3)C(=O)c3cc(S(=O)(=O)NC4(C)CC4)ccc3N21 [Example 153, (R)-1-ethynyl-N-(1-methylcyclopropyl)-4-((2-methyloxazol-5-yl)methyl)-5-oxo-1,2,4,5-tetrahydroimidazo[1,2-a]quinazoline-7-sulfonamide]
The IC50 of the first is higher: 100 to 1000 nM for the first, < 100 nM for the second.

Compared with `Cn1cc(CN2C(=O)c3cc(S(=O)(=O)NC4(C)CC4)ccc3N3C2=NC[C@H]3C#Cc2ccnn2C2CC2)cn1` [Example 193, (R)-1-((1-cyclopropyl-1H-pyrazol-5-yl)ethynyl)-4-((1-methyl-1H-pyrazol-4-yl)methyl)-N-(1-methylcyclopropyl)-5-oxo-1,2,4,5-tetrahydroimidazo[1,2-a]quinazoline-7-sulfonamide], `C[C@@H]1CN=C2N(C)C(=O)c3cc(S(=O)(=O)NC4(C)CC4)cc(-c4ccccc4C#N)c3N21` [Example 63, (R)-9-(2-cyanophenyl)-1,4-dimethyl-N-(1-methylcyclopropyl)-5-oxo-1,2,4,5-tetrahydroimidazo[1,2-a]quinazoline-7-sulfonamide] is higher in IC50: < 100 nM for the first, 1000 to 10000 nM for the second. The first is the more potent here.
